Patent US6962909B2, “Treatment of neovascularization disorders with squalimine” (Genaera Corporation, priority 1995, dated 2005)
pKi: −log10 of the molar value. Values after ≈ are worked out from the molar mass of the structure shown. “Also recorded” adds a separate entry of the source.

Columns and labels:
[1] = molecular target: NHE1 (Homo sapiens, UniProt P19634); settings: cited from earlier work
[2] = molecular target: NHE3 (Rattus norvegicus, UniProt P26433); settings: cited from earlier work
[3] = molecular target: NHE2; settings: cited from earlier work
[4] = MTT (Table II); type: cell-based
Text: As set forth in Table II, which follows Table I, the activities of natural and synthetic aminosterols in the different assays vary. In light of the foregoing, it is now possible to screen for steroids with or without squalamine-like pharmacological activity.

[5] = system: Stage 59-60 Xenopus tadpoles; experiment: Xenopus tadpole assay; type: in vivo, Xenopus laevis; settings: 10 μg/ml in water; for Pharmacological response observed in tadpole: about 1 hour
Text: A newly developed assay employing tadpoles, preferably Xenopus laevis Stages 59-60, were employed to study the effect of a compound by monitoring capillary occlusion in the tadpole's tail. […] The compounds of the invention affect the shape, viability and integrity of the embryonic tissues while not affecting the adult tissues, providing a powerful, highly specific screen. For example, substances that destroy all of the animal's epithelium, both adult and embryonic, could be regarded as toxic.
In this assay, tadpoles are introduced into Petri dishes containing a solution of the test compound in distilled water, preferably about 100 ml. The preferred concentration of the test compound is from about 1 μg/ml to about 10 μg/ml. The volume of liquid is sufficient for the animal to swim freely and drink from the solution. Thus, the effect observed results from oral absorption and subsequent systemic distribution of the agent. If the volume of liquid is not sufficient to permit oral intake, the effects that are observed would result from absorption through the surface epithelium. Thus, this simple assay can identify if an compound has characteristics of oral availability.
After an amount of time, typically about 60 minutes, the occlusion of blood flow through capillaries in the tadpole's tail are observed under an inverted microscope at a magnification of roughly 100×.
The tadpole assay described above provides an advantageous way to determine the pharmacological targets of each steroid when introduced into a mammal, and to determine pharmacological categories into which synthetic compounds belong. In the assay, each of the steroids was dissolved in 100 ml of distilled water at a concentration of 10 μg/ml. Stage 59-60 Xenopus tadpoles were introduced and evaluated by light microscopy and gross observation 1 hour later.

[6] = Mouse IV PK study; settings: in vivo
Description: To assess clearance, a mouse IV PK study was performed for compound 319 and squalamine. The compound was administered i.v. and blood samples were taken every 10 minutes. The concentration of the administered steroid was determined by HPLC analysis.

[7] = system: B16 melanoma; experiment: Growth of B16 melanoma in C57B mice; type: in vivo; settings: subcutaneous administration
Description: The growth of B16 melanoma in C57B mice is dependent upon neovascularization.
Using the growth of B16 melanoma cells in C57B mice, a recognized model for the evaluation of inhibitors of angiogenesis on the growth of cancers, the effects of subcutaneous, intraperitoneal and oral administration of squalamine were evaluated.
Animals were implanted with B16 melanoma followed by treatment with compound 1436 or 1256 administered in a combined schedule or separately. […] Thus, a combination of these two compounds achieves a therapeutic benefit in tumors dependent on neovascularization that may prevent metastatic spread.

[8] = system: vitelline capillaries of 3- to 5-day chick embryo; experiment: Chick embryo vitelline capillary regression assay; type: in vivo; design: key to Vascular reactivity (capillary regression): + = Vascular reactivity; 0 = No vascular reactivity; +/− = Equivocal reactivity; settings: for Vascular reactivity (capillary regression): 60 minutes
Description: Using the chick embryo vitelline capillaries assay, compounds were tested for their ability to induce capillary regression. Each compound was applied in 0.1 ml of 15% Ficol 400 and PBS onto the embryo, and vascular regression was assessed after 60 minutes.
The 3-day chick embryo consists of an embryonic disc from which numerous vessels emerge and return, forming a “figure 8”-shaped structure—the embryo in the center with vascular loops extending outward over both poles. […] Following a lag period of around 15 minutes, the constriction of continuity between capillary and secondary vessels, generally on the “venous” side, was observed. Continued pulsatile blood flow progressed, resulting in a “swelling” of the blind tube, followed by a pinching off of the remaining connection and formation of an enclosed vascular sac resembling a “blood island.” This process progressed until only the largest vessels remained intact.

[9] = system: human microvascular cells; experiment: Endothelial cord formation assay; type: cell-based
Text: Endothelial cells have the capacity in vitro to form tubular aggregates resembling capillaries in various early stages of formation. This conversion occurs under relatively specific conditions, in which essential growth factors along with an effective substratum are provided. It has been shown that both the interaction of growth factors with the endothelial cell and its attachment to a substratum activate the NHE. The activation of this exchanger is believed to be required for subsequent morphologic transformation of the endothelial cell into a multicellular tubular structure.
To assess the effect of compounds on the cord-like structures formed by human microvascular cells when plated in the presence of VGEF (Vascular Endothelial Growth Factor) and basic fibroblast growth factor on a collagen matrix, a standard cord formation assay was used.

[10] = system: Human ovarian carcinoma SKOV3; experiment: In vitro cell growth inhibition (assay of Baker et al.); type: cell-based
Description: As set forth in Table 7 below, all malignant tumors evaluated in tissue culture, endothelial cells and vascular smooth muscle cells were sensitive to inhibition. Thus, compound 1436 has application in the control of growth factor dependent proliferation of many types of tissue.
Using the assay described above, the anticancer effects of compound 1437 against several cancer lines was assessed.

[11] = system: PHA-stimulated human lymphocytes; experiment: Inhibition of mitogen-stimulated growth of human T-cells; type: cell-based; settings: 72 hours
Description: Human heparinized blood, freshly collected, was introduced into tissue culture flasks containing 10 μg/ml phytohaemagglutinin (PHA) in RPMI medium with 10% FCS. Various purified steroids were introduced subsequently at concentrations of 1, 5, and 10 μg/ml. Cultures were incubated for 72 hours, after which time colcemid was added to 1 μg/ml. Cultures were maintained for an additional 2 hours, and cells collected. Mitotic figures were estimated using standard cytochemical techniques, following Giemsa staining.

[12] = Fasting blood glucose in mice; type: in vivo
Description: To study the effect of steroid administrator or the NHE responsible for secretion of insulin, several of the aminosterols from shark liver were administered to fasting mice. Male CD-1 mice were assigned to one of four treatment groups. Whole blood glucose was tested using glucometer (Lifescan Glucometer II and One Touch test strips). Statistical analysis was via one-way analysis of variance (ANOVA) followed by subsequent Bonferonni's t-test.

[13] = system: C. albicans; experiment: Antibiotic activity, MIC; settings: Candida albicans
[14] = system: P. aerug; experiment: Antibiotic activity, MIC
[15] = system: S. aureus; experiment: Antibiotic activity, MIC; type: cell-based; settings: Staphylococcus aureus
[16] = system: E. coli; experiment: Antibiotic activity, MIC; type: cell-based; settings: Escherichia coli
[17] = system: L1210 lymphoblastic leukemia cells; experiment: Mouse model of L1210 leukemia
Description: C57B mice were inoculated with L1210 lymphoblastic leukemia cells at an inoculum that causes leukemia in 100% of animals. Mice received compound 1436 at 1, 5, 10 mg/kg every 3 days intraperitoneally.
Of particular interest is the hematological profile determined during the course of treatment. Animals were treated with cisplatin and compound 1436.

[18] = mice with 5 × 10^5 L1210 cells ip, cisplatin 8 mg/kg ip, compound 1436 10 mg/kg ip q4d

Chain of NHE1 (P19634 whole entry, species assumed): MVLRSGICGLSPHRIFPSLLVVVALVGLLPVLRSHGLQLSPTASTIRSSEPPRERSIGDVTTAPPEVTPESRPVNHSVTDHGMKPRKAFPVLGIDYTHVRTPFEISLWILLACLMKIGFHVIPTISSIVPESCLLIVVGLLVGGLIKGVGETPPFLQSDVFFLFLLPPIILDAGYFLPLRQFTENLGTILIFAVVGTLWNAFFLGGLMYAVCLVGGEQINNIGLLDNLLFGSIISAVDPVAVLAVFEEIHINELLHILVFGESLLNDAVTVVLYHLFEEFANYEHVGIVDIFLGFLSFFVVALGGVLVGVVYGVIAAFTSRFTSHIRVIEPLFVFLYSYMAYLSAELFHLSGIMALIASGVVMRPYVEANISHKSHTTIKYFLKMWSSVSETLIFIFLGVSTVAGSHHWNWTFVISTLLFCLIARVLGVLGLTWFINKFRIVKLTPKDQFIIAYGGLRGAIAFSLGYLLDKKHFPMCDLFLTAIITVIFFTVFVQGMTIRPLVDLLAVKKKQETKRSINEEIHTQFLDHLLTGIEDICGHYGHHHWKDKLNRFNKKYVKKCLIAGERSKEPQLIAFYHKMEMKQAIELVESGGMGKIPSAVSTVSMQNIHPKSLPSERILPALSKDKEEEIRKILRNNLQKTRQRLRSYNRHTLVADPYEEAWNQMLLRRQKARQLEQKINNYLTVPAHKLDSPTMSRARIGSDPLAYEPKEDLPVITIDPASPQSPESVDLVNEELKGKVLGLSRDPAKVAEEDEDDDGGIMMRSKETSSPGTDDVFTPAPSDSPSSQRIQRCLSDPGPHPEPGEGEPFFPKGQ
Chain of NHE3 (P26433 29-831): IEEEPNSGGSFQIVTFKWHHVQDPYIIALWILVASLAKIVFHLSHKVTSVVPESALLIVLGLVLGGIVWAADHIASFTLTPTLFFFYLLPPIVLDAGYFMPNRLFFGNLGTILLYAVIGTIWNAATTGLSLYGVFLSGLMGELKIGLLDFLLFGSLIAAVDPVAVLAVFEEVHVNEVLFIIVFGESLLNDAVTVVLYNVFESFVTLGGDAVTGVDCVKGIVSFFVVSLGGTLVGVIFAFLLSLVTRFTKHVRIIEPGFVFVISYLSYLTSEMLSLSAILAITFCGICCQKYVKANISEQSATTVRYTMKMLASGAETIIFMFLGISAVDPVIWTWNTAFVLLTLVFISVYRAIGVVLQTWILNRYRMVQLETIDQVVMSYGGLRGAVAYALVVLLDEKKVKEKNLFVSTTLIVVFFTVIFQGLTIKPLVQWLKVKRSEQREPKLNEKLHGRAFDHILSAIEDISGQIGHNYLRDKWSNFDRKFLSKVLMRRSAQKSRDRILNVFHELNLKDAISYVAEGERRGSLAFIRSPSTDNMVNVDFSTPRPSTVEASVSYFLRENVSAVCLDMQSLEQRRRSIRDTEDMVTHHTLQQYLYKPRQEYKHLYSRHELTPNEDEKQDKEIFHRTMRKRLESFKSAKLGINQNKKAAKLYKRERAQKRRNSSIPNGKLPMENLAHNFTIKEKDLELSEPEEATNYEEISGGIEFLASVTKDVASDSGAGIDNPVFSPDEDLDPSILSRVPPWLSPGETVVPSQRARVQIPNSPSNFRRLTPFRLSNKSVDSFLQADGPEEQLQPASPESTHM

Molecule: dimethylamiloride [DMA]
- pKi [1]: 7.00
- pKi [2]: 4.96
- pKi [3]: 6.15

Molecule: CC(CC[C@@H](OS(=O)(=O)O)C(C)C)[C@H]1CCC2C3C(CC[C@@]21C)[C@@]1(C)CC[C@H](NCCCNCCCCNCCCN)C[C@@H]1C[C@H]3O (stereo partly drawn) [drawing 170]
- MTT [4]: 67 µg/mL

Molecule: CC(CCC(=O)O)[C@H]1CCC2C3CC[C@H]4C[C@@H](NCCCNCCCCN)CC[C@]4(C)C3CC[C@@]21C (stereo partly drawn) [Compound 319]
- Pharmacological category in tadpole assay (similarity to a reference steroid) [5]: common vascular occlusive effect
- half-life [6]: ~14 min
- Control of B16 melanoma [7]: achieved control of B16 in C57B mice to an extent almost comparable to squalamine
- Vascular reactivity (capillary regression) ([8]; 0.001 μg applied): +/−
- Vascular reactivity (capillary regression) ([8]; 0.01 μg applied): +
- Vascular reactivity (capillary regression) ([8]; 0.1 μg applied): +
- Vascular reactivity (capillary regression) ([8]; 1 μg applied): +
- Vascular reactivity (capillary regression) ([8]; 10 μg applied): +
- Effect on endothelial cord formation ([9]; 0.01 μg/ml): −
- Effect on endothelial cord formation ([9]; 0.1 μg/ml): +
- Effect on endothelial cord formation ([9]; 1.0 μg/ml): +
- Effect on endothelial cord formation ([9]; 10.0 μg/ml): +

Molecule: CC(CCC(CO)(OS(=O)(=O)O)C(C)C)[C@H]1CCC2C3C(CC[C@@]21C)[C@@]1(C)CC[C@H](NCCCNCCCCN)C[C@@H]1C[C@H]3O (stereo partly drawn) [Compound 1437]
- Anticancer activity [10]: exhibit anticancer activity
- Pharmacological response observed in tadpole [5]: Epithelium covering the embryonic portions of the animal, such as the tail and antennae, began to slough off in sheets; also recorded: the larval skin was observed to shed off in a sheet
- Inhibition of PHA-stimulated human lymphocytes ([11]; 10 μg/ml): 10 % control
- Effect on blood glucose ([12]; intravenous, 1436 in D5W (5% glucose), 1437 in water): caused hyperglycemia in mice
- Fasting Blood Glucose Mean + SEM ([12]; male CD-1 mice, 2 × 10 mg/kg i.v. (total 20 mg/kg), overnight fast, blood 30 min. after 2d dose, 1437 and 1256 in H2O, 1436 in D5W): 82 ± 15.3 mg/dL

Molecule: CCCN(C)c1nc(N)c(C(=O)N=C(N)N)nc1Cl [MPA, methylpropylamiloride]
- pKi [1]: 7.10
- pKi [2]: 5.00
- pKi [3]: 5.30

Molecule: N=C(N)NC(=O)c1nc(Cl)c(N)nc1N [Amiloride]
- pKi [2]: 4.00
- pKi [3]: 5.52

Molecule: CS(=O)(=O)c1cc(C(=O)NC(=N)N)ccc1N1CCCCC1 [(3-methylsulfonyl-4-piperidinobenzoyl) guanidine methanesulfonate]
- pKi [1]: 6.80
- pKi [2]: 3.19
- pKi [3]: 5.30

Molecule: CC(C)C(O)CCC(C)[C@H]1CCC2C3C(CC[C@@]21C)[C@@]1(C)CC[C@H](NCCCNCCCCN(C)C)C[C@@H]1C[C@H]3O (stereo partly drawn)
- MIC [13]: 64 µg/mL (≈ 111 µM)
- MIC [14]: 128 µg/mL (≈ 222 µM)
- MIC [15]: 8 to 16 µg/mL (≈ 13.9 to 27.8 µM)
- MIC [16]: 64 µg/mL (≈ 111 µM)

Molecule: CC(CC[C@@H](OS(=O)(=O)O)C(C)C)[C@H]1CCC2C3C(CC[C@@]21C)[C@@]1(C)CC[C@H](NCCCNCCCCN)C[C@@H]1C[C@H]3O (stereo partly drawn) [drawing 43]
- MIC [13]: 8 µg/mL (≈ 12.7 µM)
- MIC [14]: 16 µg/mL (≈ 25.5 µM)
- MIC [15]: 0.5 to 1 µg/mL (≈ 0.796 to 1.59 µM)
- MIC [16]: 2 to 4 µg/mL (≈ 3.18 to 6.37 µM)

Molecule: N.N.[Cl][Pt][Cl] [Cisplatin, reference compound]
- Hematological profile during treatment ([17]; by day 28): developed a profound anemia by day 28
- RBC, Early Time [17, 18]: 9.4 10^6/mm^3
- RBC, Late Time [17, 18]: 1.5 10^6/mm^3
- WBC, Early Time [17, 18]: 8.1 10^3/mm^3
- WBC, Late Time [17, 18]: 18.1 10^3/mm^3

Molecule: CC(C)CCCC(C)[C@H]1CCC2C3CC[C@H]4C[C@@H](NCCCNCCCCNCCCN)CC[C@]4(C)C3CC[C@@]21C (stereo partly drawn) [drawing 47]
- MIC [13]: 32 µg/mL (≈ 55.8 µM)
- MIC [14]: 64 µg/mL (≈ 112 µM)
- MIC [15]: 16 µg/mL (≈ 27.9 µM)
- MIC [16]: 128 µg/mL (≈ 223 µM)

Molecule: CC(CC[C@@H](OS(=O)(=O)O)C(C)C)[C@H]1CCC2C3C(CC[C@@]21C)[C@@]1(C)CC[C@H](NCCCNCCCCN)C[C@@H]1C[C@H]3O (stereo partly drawn) [drawing 164]
- MTT [4]: 32 µg/mL

Molecule: CC(CCC(=O)O)[C@H]1CCC2C3CC[C@H]4C[C@H](NCCCNCCCCN)CC[C@]4(C)C3CC[C@@]21C (stereo partly drawn)
- MIC [13]: > 256 µg/mL
- MIC [14]: 64 µg/mL (≈ 127 µM)
- MIC [15]: 128 µg/mL (≈ 254 µM)
- MIC [16]: 32 µg/mL (≈ 63.5 µM)

Molecule: CC(COS(=O)(=O)O)C(=O)CCC(C)[C@H]1CCC2C3C(CC[C@@]21C)[C@@]1(C)CC[C@H](NCCCNCCCCN)C[C@@H]1C[C@H]3O (stereo partly drawn) [Compound 1360]
- Pharmacological response observed in tadpole [5]: Swelling and lysis of certain erythrocytes occurred, resulting in accumulation of nuclei within certain small vessels of the tail
- Pharmacological response observed in tadpole ([5]; listed as compound 1360): extensive vasocclusion occurred within 60 minutes throughout the tail
- Vascular reactivity (capillary regression) ([8]; 1 μg applied): 0
- Effect on blood circulating through the embryonic vessels ([8]; within 20 minutes of application): exhibited a brighter red color
- Inhibition of PHA-stimulated human lymphocytes ([11]; 1 μg/ml): 5 % control
- Inhibition of PHA-stimulated human lymphocytes ([11]; 5 μg/ml): 5 % control
- Inhibition of PHA-stimulated human lymphocytes ([11]; 10 μg/ml): 5 % control

Molecule: CC(C)CCCC(C)[C@H]1CCC2C3CC[C@H]4C[C@@H](NCCCNCCCCNCCCN)CC[C@]4(C)C3CC[C@@]21C (stereo partly drawn) [drawing 96]
- MTT [4]: 19 µg/mL
- Cord Formation, Minimum Effective Concentration [9]: 10 µg/mL
